Source: US20260207654A1, “HEPARAN SULFATE AND ITS MIMETICS AS CHEMOKINE INHIBITORS” (INDIAN INSTITUTE OF SCIENCE EDUCATION AND RESEARCH, priority 2021, published 2026)

How the values were obtained:
Experiment in all cases: Chemokine glycan microarray binding assay
Details in all cases: maximum RFU set as 100% binding, average across 2 glycan concentrations and 3 chemokine dilutions (n=6)
CCL13 = CCL13 (Homo sapiens, UniProt Q99616)
Method: (§1) Microarray Studies: The compounds of the present invention were covalently immobilized on epoxy group collated glass slides. Slides were rehydrated with dH2O and incubated for 30 min in a staining dish with 50° C. prewarmed ethanolamine (0.05 M) in Tris-HCl (0.1 M, pH 9.0) to block the remaining reactive epoxy groups on the slide surface, then washed with 50° C. prewarmed dH2O. Slides were centrifuged at 200 g for 3 min, then fitted with the ProPlate Multi-Array 16-well slide module (Grace Bio-lab P37001) to divide into the subarrays (blocks). Slides were washed with PBST (0.1% Tween 20), aspirated, and blocked with 200 μL/subarray of blocking buffer (PBS pH 7.3+1% w/v ovalbumin) for 1 h at RT with gentle shaking. Next, the blocking solution was aspirated and 100 μL/block of primary chemokines diluted in PBS pH 7.3+1% w/v ovalbumin were incubated with gentle shaking for 2 hours at RT. Slides were washed 4 times with PBST, then with PBS (without Tween-20) for 2 min. Bound antibodies were detected by incubating with biotinylated secondary detections (1 ng/μL) diluted in PBS, 200 μL/block at RT for 1 h. Slides were washed 4 times with PBST, then with PBS (without Tween-20) for 2 min and biotinylated antibodies were detected with Cy3-SA ([…]). Slides were washed 4 times with PBST, then with PBS for 10 min followed by removal from the ProPlate Multi-Array slide module and immediately dipping in a staining dish with dH2O for 10 min with shaking. The slides were then centrifuged at 200 g for 3 min, and the dry slides immediately scanned. Binding was tested at three serial dilutions, then detected with the relevant biotinylated secondary antibody (1 μg/mL) followed by Cy3-strepavidin (1.5 μg/mL). Arrays were scanned and RFUs were calculated of chemokines binding to 100 μM glycans printed at four replicates. Rank binding of chemokines (each at three dilutions) to glycans printed at four replicates each was calculated and summarized in Table 1. For each binding assay per printed block, the maximum RFU was determined and set as 100% binding. Then, binding to all other glycans in the same block was ranked in comparison to the maximal binding, and average rank binding (and SEM) for each glycan across the three examined concentrations of each chemokine was calculated. This analysis allowed to compare the glycan-binding profiles of the different chemokines and dissect their binding preferences.
(§2) Table 1. Chemokine glycan microarray binding assay. Binding was tested at 3 serial dilutions, then detected with the relevant biotinylated secondary antibody (1 μg/ml) followed by Cy3-Strepavidin (1.5 μg/ml) (Table SX). Arrays were scanned, relative fluorescent units (RFU) obtained, and maximum RFU determined and set as 100% binding. Then rank binding (per printed glycan per concentration, per each chemokine dilution, per printed block) was determined. Since each glycans was printed at 2 concentration, 100% binding was set separately for each concentration. Then, binding to all the other glycans at the same concentration was ranked in comparison to the maximal binding, and the average rank binding and SEM for each glycan across the two glycan concentrations and three examined dilutions of each chemokine was calculated (n=6, 2 glycan concentrations across 3 chemokine dilutions). This analysis allowed to compare the glycan binding profiles of the different chemokines and dissect their binding preferences. The mean rank is shown as a heatmap of all the examined binding assays together (red highest, blue lowest and white 50th percentile of ranking).

CCL2 = CCL2 (Homo sapiens, UniProt P13500)
CCL2, sequence (P13500 24-99, species assumed): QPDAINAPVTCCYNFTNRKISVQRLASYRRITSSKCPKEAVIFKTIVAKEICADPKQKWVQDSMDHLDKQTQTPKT
Method: as §1, §2

CCL21 = target: T1, CCL21 (Homo sapiens, UniProt O00585)
T1 sequence (O00585 24-134): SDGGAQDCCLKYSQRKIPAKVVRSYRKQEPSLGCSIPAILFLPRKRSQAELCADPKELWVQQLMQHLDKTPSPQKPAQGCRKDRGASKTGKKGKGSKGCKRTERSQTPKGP
Method: as §1, §2

CCL28 = target: T2, CCL28 (Homo sapiens, UniProt Q9NRJ3)
T2 sequence (Q9NRJ3 20-127): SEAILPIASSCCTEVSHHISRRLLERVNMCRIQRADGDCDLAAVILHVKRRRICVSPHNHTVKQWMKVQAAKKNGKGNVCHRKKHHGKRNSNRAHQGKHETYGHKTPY
Method: as §1, §2

CCL5 = target: T3, CCL5 (Homo sapiens, UniProt P13501)
T3 sequence (P13501 24-91): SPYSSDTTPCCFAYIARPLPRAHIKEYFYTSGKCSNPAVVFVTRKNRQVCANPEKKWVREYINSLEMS
Method: as §1, §2

CCL7 = CCL7 (Homo sapiens, UniProt P80098)
CCL7, sequence (P80098 24-99, species assumed): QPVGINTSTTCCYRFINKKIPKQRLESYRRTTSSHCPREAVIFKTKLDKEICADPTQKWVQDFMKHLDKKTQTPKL
Method: as §1, §2

CXCL10 = target: T4, CXCL10 (Homo sapiens, UniProt P02778)
T4 sequence (P02778 22-98): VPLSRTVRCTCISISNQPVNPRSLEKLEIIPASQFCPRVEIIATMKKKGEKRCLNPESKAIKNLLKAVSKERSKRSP
Method: as §1, §2

CXCL12 = CXCL12 (Homo sapiens, UniProt P48061)
CXCL12, sequence (P48061 22-93, species assumed): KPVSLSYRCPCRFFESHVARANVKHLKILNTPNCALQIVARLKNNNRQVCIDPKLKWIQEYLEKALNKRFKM
Method: as §1, §2

CXCL8 = target: T5, CXCL8 (Homo sapiens, UniProt P10145)
T5 sequence (P10145 21-99): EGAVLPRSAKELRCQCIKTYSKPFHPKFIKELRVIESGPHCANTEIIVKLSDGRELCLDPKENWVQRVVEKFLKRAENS
Method: as §1, §2

CCL13, sequence (Q99616 17-98, species assumed): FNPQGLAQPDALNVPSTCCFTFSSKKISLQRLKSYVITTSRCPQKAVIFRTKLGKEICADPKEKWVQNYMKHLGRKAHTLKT

Compound	mean rank binding to CCL13 (CCL13) [%]	mean rank binding to CCL2 (CCL2) [%]	mean rank binding to CCL21 (CCL21) [%]	mean rank binding to CCL28 (CCL28) [%]	mean rank binding to CCL5 (CCL5) [%]	mean rank binding to CCL7 (CCL7) [%]	mean rank binding to CXCL10 (CXCL10) [%]	mean rank binding to CXCL12 (CXCL12) [%]	mean rank binding to CXCL8 (CXCL8) [%]
3-Aminopropyl-O-[(2-amino-2-deoxy-α-D-glucopyranosyl)-(1→4)-O-(2-O-sulfonato-α-L-idopyranosyluronate)-(1→4)-O-(2-amino-2-deoxy-α-D-glucopyranosyl)]-(1→4)-O-2-O-sulfonato-α-L-idopyranosiduronate [Example 13]	70	13	69	43	31	56	52	69	37
NCCOCCO[C@@H]1OC(C(=O)O)[C@@H](O)C(O)C1O (stereo partly drawn) [Example 1, Ethaoxy-2-aminoethoxyl-O-α-L-idopyranoside Uronic Acid]	74	4	52	46	2	30	47	62	17
NCCOCCO[C@@H]1O[C@@H](C(=O)O)[C@@H](OS(=O)(=O)O)[C@H](O)[C@H]1O [Example 2, Ethoxy-2-aminoethoxyl-O-(4-O-sulfonato)-α-L-idopyranoside Uronic Acid]	82	2	63	58	2	30	45	66	12
NCCOCCO[C@@H]1O[C@@H](C(=O)O)[C@@H](OS(=O)(=O)O)[C@H](O)[C@H]1OS(=O)(=O)O [Example 3, Ethoxy-2-aminoethoxyl-O-(2,4-O-disulfonato)-α-L-idopyranoside Uronic Acid]	69	0	46	72	1	17	24	38	5
NCCOCCO[C@@H]1OC(C(=O)O)[C@@H](O[C@@H]2OC(C(=O)O)[C@@H](O)C(O)C2O)C(O)C1O (stereo partly drawn) [Example 4, Ethoxy-2-aminoethoxyl-O-(α-L-idopyranosyl Uronic Acid-α(1→4))-α-L-idopyranosyl Uronic Acid]	67	2	48	56	2	33	44	56	12
NCCOCCO[C@@H]1O[C@@H](C(=O)O)[C@@H](O[C@@H]2O[C@@H](C(=O)O)[C@@H](OS(=O)(=O)O)[C@H](O)[C@H]2O)[C@H](O)[C@H]1O [Example 5, Ethoxy-2-aminoethoxyl-O-((4-O-sulfonato)-α-L-idopyranosyl Uronic Acid-α(1→4))-α-L-idopyranoside Uronic Acid]	81	23	62	80	15	58	57	64	62
NCCOCCO[C@@H]1O[C@@H](C(=O)O)[C@@H](O[C@@H]2O[C@@H](C(=O)O)[C@@H](OS(=O)(=O)O)[C@H](O)[C@H]2OS(=O)(=O)O)[C@H](O)[C@H]1OS(=O)(=O)O [Example 6, Ethoxy-2-aminoethoxyl-O-((2,4-O-disulfonato)-α-L-idopyranosyl Uronic Acid-α(1→4)(2-sulfonato))-α-L-idopyroside Uronic Acid]	94	25	71	84	38	55	67	79	73
NCCOCCO[C@@H]1OC(C(=O)O)[C@@H](O[C@@H]2OC(C(=O)O)[C@@H](O[C@@H]3OC(C(=O)O)[C@@H](O)C(O)C3O)C(O)C2O)C(O)C1O (stereo partly drawn) [Example 7, Ethoxy-2-aminoethoxyl-O-(α-L-idopyranosyl Uronic Acid-α(1→4)-α-L-idopyranosyl Uronic Acid-α(1→4))-α-L-idopyranoside Uronic Acid]	86	36	83	80	30	75	78	92	63
